Consider one compound from patent US20040248801A1, “Methods and reagents for regulation of cellular responses in biological systems” (priority 2000, published 2004).

Experiment [1] deals with bacterial chemoreceptors of E. coli AW405 or RP 1078 (cheW). Description: immunofluorescence microscopy of chemoreceptor organization. It is filed as cell-based, Escherichia coli. The following applies: E. coli cheW mutants, 5 mM, anti-Tsr labeling. The protocol:
Fluorescence microscopy experiments were performed to visualize changes in chemotaxis receptor organization upon treatment with saccharide-carrying ligands. These experiments can determine directly whether or not multivalent ligands can influence chemoreceptor reorganization. It had been shown that wild-type E. coli localize chemoreceptors to their poles and that inactivation of the structural protein, CheW, results in a random distribution of chemoreceptors on the cell. The ability of ROMP-derived arrays to localize the chemoreceptors was examined using E. coli cheWmutants. Bacteria were treated with 1, 3, or 4, fixed, and labeled with an antibody to the bacterial chemoreceptors (anti-Tsr). […]
To confirm the ability of multivalent ligands to alter the organization of the chemoreceptors in the bacterial membrane E. coli were treated with compound 8, a galactose-bearing multivalent ligand having a fluorescent label (Scheme 1). When E. coli were treated with 8 or a fluorescein-labeled anti-Tsr antibody 14, the fluorescence patterns observed were similar. […]
E. coli AW405 or RP 1078 (cheW) were pretreated with buffer alone or with compounds 1, 3, 4, or 8 at 5 mM in a 10 μL total volume of chemotaxis buffer. […] Fluorescence microscopy was performed on a Zeiss Axioscope at 1000×using an oil immersion lens. […]

For experiment [2], the system named is B. subtilis 011085. As to the kind of experiment: B. subtilis capillary accumulation assay. In kind it is cell-based, Bacillus subtilis. The source says:
FIG. 4: Results of B. subtilis capillary accumulation assays using ROMP-derived glucose ligands (compound 5-7, Scheme 1). Buffer alone, glucose, or glucose-bearing compounds 5-7 were used as attractants in the capillary accumulation assay. Results are shown for glucose, compound 5, compound 6, and compound 7. Results are the average of at least four trials performed in duplicate and error bars represent single standard deviations.
To test the generality of the observed valency-dependent differences in chemotactic activities and to investigate the role of membrane permeability in responses to our ligands, chemotactic experiments in B. subtilis were conducted. B. subtilis is a gram-positive bacterium that, like gram-negative E. coli, is able to respond to saccharide chemoattractants. In the case of B. subtilis, the multivalent ligands can directly interact with saccharide-sensing receptors, without having to first traverse the outer membrane. Glucose is a chemoattractant for B. subtilis, but galactose is not. Glucose-carrying ligands (compounds 5-7, Scheme 1) were effective chemoattractants for B. subtilis as shown in capillary accumulation assays. […] Free chemoattractant signal glucose had maximal activity as a chemoattractant at 0.5 mM. In analogy to observations with E. coli, as the valency of the ligand increases, the saccharide residue concentration of maximum chemotaxis decreases. […] The results observed indicate that in evolutionarily divergent bacteria E. coli and B. subtilis, the valency of the attractant influences chemotactic response.
E. coli from an overnight culture were grown in LB to OD550 0.4-0.6, washed twice with E. coli chemotaxis buffer, and then partially permeabilized. Bacteria were resuspended in chemotaxis buffer to an OD550 0.1 and utilized in the capillary accumulation assay at 30° C. for 60 min, as previously described. […] Data was analyzed using the Q and Students tests.

Regarding `O=C(NCCOC1OC(CO)C(O)C(O)C1O)C1C[C@@H]2C=CC1C2` (some centres unmarked) [Compound 1], the “effect on chemoreceptor distribution” value in experiment [1] is listed as “no effect on receptor distribution”. For the same compound, in experiment [2], the “chemoattractant activity for B. subtilis” value is “not chemoattractants”.
